Laboratory results taken from patent publication US20220370485A1, “COMPOUNDS AND METHODS FOR TREATING OR PREVENTING CARDIOVASCULAR DISEASES AND CONDITIONS” (Lexicon Pharmaceuticals, Inc., priority 2021, published 2022).
Read-outs that look alike come from different tables or passages of the source.

Tests used:
[1] = system: patients with type 2 diabetes mellitus recently hospitalized for worsening heart failure; settings: for Difference (95% CI) in least-squares mean change in KCCQ-12 score to month 4 / Difference (95% CI) in least-squares mean change in estimated GFR: sotagliflozin minus placebo
[2] = system: patients with type 2 diabetes mellitus, chronic kidney disease, and additional cardiovascular risk; settings: T2DM + CKD patients
[3] = T2DM + worsening heart failure, N = 608
[4] = T2DM + worsening heart failure, N = 608, listed as sotagliflozin
[5] = sotagliflozin vs. placebo, T2DM + worsening heart failure
[6] = sotagliflozin vs. placebo, T2DM + worsening heart failure, listed as sotagliflozin
[7] = sotagliflozin vs placebo, listed as sotagliflozin
[8] = sotagliflozin vs placebo, time-to-event analysis

SMILES: CCOc1ccc(Cc2cc([C@@H]3O[C@H](SC)[C@@H](O)[C@H](O)[C@H]3O)ccc2Cl)cc1 [Sotagliflozin, (2S,3R,4R,5S,6R)-2-(4-chloro-3-(4-ethoxybenzyl)phenyl)-6-(methylthio)tetrahydro-2H-pyran-3,4,5-triol]
- Deaths from any cause - rate [1, 3]: (13.5) events per 100 person-years of follow-up
- Deaths from any cause - total no. of events [1, 3]: 65
- Deaths from cardiovascular causes - rate [1, 3]: (10.6) events per 100 person-years of follow-up
- Deaths from cardiovascular causes - total no. of events [1, 3]: 51
- Deaths from cardiovascular causes, hospitalizations and urgent visits for heart failure, and events of heart failure during hospitalization - rate [1, 3]: (54.7) events per 100 person-years of follow-up
- Deaths from cardiovascular causes, hospitalizations and urgent visits for heart failure, and events of heart failure during hospitalization - total no. of events [1, 3]: 263
- Deaths from cardiovascular causes, hospitalizations for heart failure, nonfatal myocardial infarctions, and nonfatal strokes - rate [1, 3]: (51.4) events per 100 person-years of follow-up
- Deaths from cardiovascular causes, hospitalizations for heart failure, nonfatal myocardial infarctions, and nonfatal strokes - total no. of events [1, 3]: 247
- Hospitalizations and urgent visits for heart failure - rate [1, 3]: (40.4) events per 100 person-years of follow-up
- Hospitalizations and urgent visits for heart failure - total no. of events [1, 3]: 194
- Least-squares mean change in estimated GFR ([1]; T2DM + worsening heart failure, N = 608, during follow-up): −0.34 ml/min/1.73 m^2
- Deaths from any cause - rate [1, 4]: 13.5 events per 100 person-years of
- Deaths from cardiovascular causes - rate [1, 4]: 10.6 events per 100 person-years of
- Least-squares mean change in KCCQ-12 score to month 4 ([1]; T2DM + worsening heart failure, N = 608, scores range from 0 to 100): 17.7
- Primary end point: deaths from cardiovascular causes and hospitalizations and urgent visits for heart failure - total no. of events ([1]; T2DM patients with recent worsening heart failure, 200 mg once daily increased to 400 mg, N = 608, median follow-up 9.0 months): 245
- Primary end point: deaths from cardiovascular causes and hospitalizations and urgent visits for heart failure - rate ([1]; T2DM patients with recent worsening heart failure, N = 608): (51.0) events per 100 person-years of follow-up
- Primary end point: deaths from cardiovascular causes and hospitalizations and urgent visits for heart failure - rate ([1]; T2DM patients with recent worsening heart failure, N = 608, listed as sotagliflozin): 51.0 events per 100 person-years of
- Absolute difference in rate of primary end-point events ([1]; sotagliflozin group vs placebo group (51.0 vs 76.3), 95% CI, 5.1 to 45.6): 25.3 events per 100 patient-years
- Difference (95% CI) in least-squares mean change in KCCQ-12 score to month 4 [1]: 4.1 (1.3 to 7.0) points
- Difference (95% CI) in least-squares mean change in estimated GFR [1]: −0.16 (−1.30 to 0.98) ml/min/1.73 m^2
- Difference (95% CI) in least-squares mean change in KCCQ-12 score to month 4 ([1]; listed as sotagliflozin): 4.1 points
- Difference (95% CI) in least-squares mean change in estimated GFR ([1]; listed as sotagliflozin): −0.16 ml/min/1.73 m^2
- Total number of deaths from cardiovascular causes and hospitalizations for heart failure, excluding urgent visits for heart failure - hazard ratio ([1]; sotagliflozin vs. placebo, 95% CI, 0.53 to 0.88): 0.68
- Deaths from any cause - Hazard Ratio (95% CI) [1, 5]: 0.82 (0.59 to 1.14)
- Deaths from cardiovascular causes - Hazard Ratio (95% CI) [1, 5]: 0.84 (0.58 to 1.22)
- Deaths from cardiovascular causes, hospitalizations and urgent visits for heart failure, and events of heart failure during hospitalization - Hazard Ratio (95% CI) [1, 5]: 0.68 (0.54 to 0.86)
- Deaths from cardiovascular causes, hospitalizations for heart failure, nonfatal myocardial infarctions, and nonfatal strokes - Hazard Ratio (95% CI) [1, 5]: 0.72 (0.56 to 0.92)
- Hospitalizations and urgent visits for heart failure - Hazard Ratio (95% CI) [1, 5]: 0.64 (0.49 to 0.83)
- Primary end point: deaths from cardiovascular causes and hospitalizations and urgent visits for heart failure - Hazard Ratio (95% CI) [1, 5]: 0.67 (0.52 to 0.85)
- Deaths from any cause - Hazard Ratio (95% CI) [1, 6]: 0.82
- Deaths from cardiovascular causes - Hazard Ratio (95% CI) [1, 6]: 0.84
- Primary end point: deaths from cardiovascular causes and hospitalizations and urgent visits for heart failure - Hazard Ratio (95% CI) [1, 6]: 0.67
- Original primary end point: first occurrence of either death from cardiovascular causes or hospitalization for heart failure - hazard ratio ([1]; sotagliflozin vs. placebo, time-to-event analysis, 95% CI, 0.56 to 0.89): 0.71
- Subgroup analyses of the primary efficacy end point ([1]; subgroups by geographic region, LVEF (<50% or ≥50%), timing of first dose, sex, age, renal function (FIG. 4)): consistent treatment effect
- Primary end point: total no. of deaths from cardiovascular causes, hospitalizations for HF, and urgent visits for HF - event rate ([2]; 200 mg once daily increased to 400 mg, N = 5292, median follow-up 16 months): 5.6 no. of events/100 patient-yr
- Deaths from any cause - event rate ([2]; N = 5292): 3.5 no. of events/100 patient-yr
- Deaths from any cause - no. of events ([2]; N = 5292): 246
- Deaths from cardiovascular causes - event rate ([2]; N = 5292): 2.2 no. of events/100 patient-yr
- Deaths from cardiovascular causes - no. of events ([2]; N = 5292): 155
- First occurrence of a sustained decrease of ≥50% in the eGFR from baseline for ≥30 days, long-term dialysis, renal transplantation, or sustained eGFR of <15 ml/min/1.73 m2 for ≥30 days - event rate ([2]; N = 5292): 0.5 no. of events/100 patient-yr
- First occurrence of a sustained decrease of ≥50% in the eGFR from baseline for ≥30 days, long-term dialysis, renal transplantation, or sustained eGFR of <15 ml/min/1.73 m2 for ≥30 days - no. of events ([2]; N = 5292): 37
- Primary end point: total no. of deaths from cardiovascular causes, hospitalizations for HF, and urgent visits for HF - no. of events ([2]; N = 5292): 400
- Total no. of deaths from cardiovascular causes, hospitalizations for HF, nonfatal myocardial infarctions, and nonfatal strokes - event rate ([2]; N = 5292): 7.6 no. of events/100 patient-yr
- Total no. of deaths from cardiovascular causes, hospitalizations for HF, nonfatal myocardial infarctions, and nonfatal strokes - no. of events ([2]; N = 5292): 541
- Total no. of deaths from cardiovascular causes, hospitalizations for HF, urgent visits for HF, and events of HF during hospitalization - event rate ([2]; N = 5292): 6.4 no. of events/100 patient-yr
- Total no. of deaths from cardiovascular causes, hospitalizations for HF, urgent visits for HF, and events of HF during hospitalization - no. of events ([2]; N = 5292): 453
- Total no. of deaths from cardiovascular causes, nonfatal myocardial infarctions, and nonfatal strokes - event rate ([2]; N = 5292): 4.8 no. of events/100 patient-yr
- Total no. of deaths from cardiovascular causes, nonfatal myocardial infarctions, and nonfatal strokes - no. of events ([2]; N = 5292): 343
- Total no. of hospitalizations for HF and urgent visits for HF - event rate ([2]; N = 5292): 3.5 no. of events/100 patient-yr
- Total no. of hospitalizations for HF and urgent visits for HF - no. of events ([2]; N = 5292): 245
- Deaths from any cause - Hazard Ratio (95% CI) ([2]; sotagliflozin vs placebo): 0.99 (0.83-1.18)
- Deaths from cardiovascular causes - Hazard Ratio (95% CI) ([2]; sotagliflozin vs placebo): 0.90 (0.73-1.12)
- Primary end point: total no. of deaths from cardiovascular causes, hospitalizations for HF, and urgent visits for HF - Hazard Ratio (95% CI) ([2]; sotagliflozin vs placebo): 0.74 (0.63-0.88)
- Total no. of deaths from cardiovascular causes, hospitalizations for HF, nonfatal myocardial infarctions, and nonfatal strokes - Hazard Ratio (95% CI) ([2]; sotagliflozin vs placebo): 0.72 (0.63-0.83)
- Total no. of deaths from cardiovascular causes, hospitalizations for HF, urgent visits for HF, and events of HF during hospitalization - Hazard Ratio (95% CI) ([2]; sotagliflozin vs placebo): 0.76 (0.64-0.89)
- Total no. of deaths from cardiovascular causes, nonfatal myocardial infarctions, and nonfatal strokes - Hazard Ratio (95% CI) ([2]; sotagliflozin vs placebo): 0.77 (0.65-0.91)
- Total no. of hospitalizations for HF and urgent visits for HF - Hazard Ratio (95% CI) ([2]; sotagliflozin vs placebo): 0.67 (0.55-0.82)
- Deaths from cardiovascular causes - Hazard Ratio (95% CI) [2, 7]: 0.90
- Primary end point: total no. of deaths from cardiovascular causes, hospitalizations for HF, and urgent visits for HF - Hazard Ratio (95% CI) [2, 7]: 0.74
- Total no. of hospitalizations for HF and urgent visits for HF - Hazard Ratio (95% CI) [2, 7]: 0.67
- Original coprimary end point: first occurrence of death from cardiovascular causes or hospitalization for heart failure - hazard ratio [2, 8]: 0.77
- Original coprimary end point: first occurrence of death from cardiovascular causes, nonfatal myocardial infarction, or nonfatal stroke - hazard ratio [2, 8]: 0.84
